Test systems include KM12 colon; EKVX NSCLC; UACC-62 melanoma; NCI-H522 lung; TK-10 renal; SN12C renal; OVCAR-5 ovarian; MOLT-4 leukemia; COLO 205 colon; SF-268 CNS; NCI/ADR-RES ovarian; K-562 leukemia; UACC-257 melanoma; DLD-1 colon; HCC-2998 colon; M14 melanoma.
Common to all, as to experiment: DTP human tumour cell line panel, 48 h

The text below walks through data of PubChem BioAssay (NCI).

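Grown in 96-well plates, cells were treated for 48 hours with each compound at five concentrations. Insufficient inhibition: endpoint recorded as highest concentration tested. At the TGI there is no net growth.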

Broadly, the TGI is the concentration giving total growth inhibition. A lower TGI goes with greater sensitivity of the cells. Take `C[N+](C)(CCCCCC[N+](C)(C)CCCN1C(=O)c2cccc3cccc(c23)C1=O)CCCN1C(=O)c2cccc3cccc(c23)C1=O`: the concentration for total growth inhibition (TGI) with KM12 colon, in the assay with EKVX NSCLC, with UACC-62 melanoma, in the assay with NCI-H522 lung, in the assay on TK-10 renal and in the assay on SN12C renal was above 100 µM throughout. Moreover, the total growth inhibition concentration (TGI) in the assay on OVCAR-5 ovarian, with MOLT-4 leukemia, in the assay on COLO 205 colon, in the assay with SF-268 CNS, in the assay on NCI/ADR-RES ovarian and with K-562 leukemia was above 100 µM in each case. In addition, in the assay with UACC-257 melanoma, the TGI is above 100 µM.

For `C/C(=C/C(=O)Nc1ccccc1)Nc1onc(C)c1C`, the TGI in the assay on KM12 colon, with EKVX NSCLC, with UACC-62 melanoma, with NCI-H522 lung, in the assay on SN12C renal and in the assay on OVCAR-5 ovarian was above 100 µM throughout. Further, the TGI in the assay with MOLT-4 leukemia, with COLO 205 colon, in the assay with DLD-1 colon, in the assay on SF-268 CNS, with HCC-2998 colon and in the assay with NCI/ADR-RES ovarian was above 100 µM throughout. The TGI with K-562 leukemia and in the assay with UACC-257 melanoma was above 100 µM each time.

`Cc1c(O)c(=O)ccn1CCN`: the concentration for total growth inhibition (TGI) with KM12 colon, with EKVX NSCLC, in the assay on UACC-62 melanoma, in the assay with NCI-H522 lung, in the assay on TK-10 renal and with SN12C renal was above 100 µM in each case. The TGI in the assay on OVCAR-5 ovarian, with MOLT-4 leukemia, in the assay with COLO 205 colon, in the assay with DLD-1 colon, in the assay with SF-268 CNS and with HCC-2998 colon was above 100 µM in each case. For the same compound, the total growth inhibition concentration (TGI) with M14 melanoma, in the assay on K-562 leukemia and in the assay on UACC-257 melanoma was above 100 µM each time.

Consider `O=NN1C(c2ccccc2)CNC(=O)CC1c1ccccc1` (configuration not stated), for which the TGI with KM12 colon was above 100 µM; in the assay on EKVX NSCLC it was above 100 µM; in the assay on UACC-62 melanoma, above 100 µM; in the assay with NCI-H522 lung, 46.8 µM; with SN12C renal, above 100 µM; in the assay with OVCAR-5 ovarian, above 100 µM. Besides, the total growth inhibition concentration (TGI) is above 93 µM in the assay on MOLT-4 leukemia; 69.8 µM with COLO 205 colon; above 100 µM in the assay on DLD-1 colon; above 100 µM with SF-268 CNS; above 100 µM with HCC-2998 colon; above 64.6 µM in the assay with NCI/ADR-RES ovarian. Also, the TGI in the assay on K-562 leukemia and in the assay on UACC-257 melanoma was above 100 µM in each case.

Consider `N#C/C(=C\c1ccncc1)c1csc2ccccc12`, for which the TGI was 37.8 µM in the assay with KM12 colon; above 100 µM in the assay with EKVX NSCLC; above 76.4 µM in the assay with UACC-62 melanoma; 41.9 µM in the assay on NCI-H522 lung; above 74.8 µM in the assay with SN12C renal; above 89.6 µM in the assay with OVCAR-5 ovarian. Further, the TGI stood at 43.1 µM with MOLT-4 leukemia; 35.9 µM in the assay on COLO 205 colon; 96.9 µM in the assay on DLD-1 colon; 82.5 µM in the assay on SF-268 CNS; 35.8 µM in the assay with HCC-2998 colon; 61.8 µM in the assay on NCI/ADR-RES ovarian. The TGI in the assay with K-562 leukemia was 50.8 µM; in the assay on UACC-257 melanoma, above 75.3 µM.

For the compound `O=S(O)CCCCCSSc1ccccc1`, the concentration for total growth inhibition (TGI) was above 100 µM in the assay with KM12 colon; above 100 µM with EKVX NSCLC; 79.9 µM in the assay on UACC-62 melanoma; 42 µM with NCI-H522 lung; above 100 µM in the assay with TK-10 renal; above 100 µM with SN12C renal. In addition, the TGI in the assay on OVCAR-5 ovarian is above 100 µM; in the assay with MOLT-4 leukemia, 34.2 µM; in the assay with DLD-1 colon it was above 100 µM; in the assay on SF-268 CNS, 85.5 µM; in the assay with HCC-2998 colon, above 100 µM; in the assay with M14 melanoma it was above 100 µM. Also, the TGI in the assay on K-562 leukemia and in the assay on UACC-257 melanoma was above 100 µM in each case.

Turning to `Nc1nc(Nc2ccc(Cl)c(Cl)c2)nc2nc[nH]c12`, the concentration for total growth inhibition (TGI) is 28.6 µM in the assay on KM12 colon; 18.8 µM in the assay with EKVX NSCLC; 29 µM in the assay with UACC-62 melanoma; 29.3 µM in the assay with NCI-H522 lung; 28.3 µM in the assay with TK-10 renal; 44.6 µM in the assay with SN12C renal. Moreover, the TGI in the assay on OVCAR-5 ovarian turned out to be 75.3 µM; with MOLT-4 leukemia, 39.2 µM; in the assay on COLO 205 colon, 44.3 µM; with SF-268 CNS, 22.9 µM; in the assay with HCC-2998 colon it was 27.9 µM; in the assay on NCI/ADR-RES ovarian, 38.3 µM. The concentration for total growth inhibition (TGI) with M14 melanoma was determined as 29.8 µM; in the assay on K-562 leukemia, 47.4 µM; in the assay with UACC-257 melanoma, 32.7 µM.

For `O=C1C(Cl)N(c2c(Cl)cccc2Cl)C1c1c[nH]c2ccccc12` (configuration not stated), the TGI in the assay on KM12 colon, with EKVX NSCLC, in the assay with UACC-62 melanoma, with NCI-H522 lung, in the assay on TK-10 renal and with SN12C renal was above 100 µM in each case. Also, the TGI with OVCAR-5 ovarian, with MOLT-4 leukemia, in the assay with COLO 205 colon, with DLD-1 colon, with SF-268 CNS and in the assay with M14 melanoma was above 100 µM in each case. The total growth inhibition concentration (TGI) in the assay on K-562 leukemia and with UACC-257 melanoma was above 100 µM throughout.

Take `S=c1sc2c(s1)SC(c1ccccc1)CS2` (configuration not stated): the total growth inhibition concentration (TGI) in the assay with KM12 colon, with EKVX NSCLC, in the assay on UACC-62 melanoma, with NCI-H522 lung, in the assay with SN12C renal and in the assay with OVCAR-5 ovarian was above 100 µM in each case. The TGI with MOLT-4 leukemia, with COLO 205 colon, in the assay with DLD-1 colon, in the assay on SF-268 CNS, in the assay on HCC-2998 colon and in the assay with NCI/ADR-RES ovarian was above 100 µM throughout. Besides, the concentration for total growth inhibition (TGI) in the assay on K-562 leukemia and in the assay on UACC-257 melanoma was above 100 µM throughout.

In the case of `Cc1ccc(/C=C2\Sc3scc(-c4ccccc4)[n+]3C2=O)cc1`, the total growth inhibition concentration (TGI) in the assay with KM12 colon was above 49.5 µM; in the assay with EKVX NSCLC, above 58.5 µM; in the assay with UACC-62 melanoma it was 45.6 µM; in the assay on NCI-H522 lung, 19.6 µM; in the assay on TK-10 renal, 53.1 µM; in the assay with SN12C renal, above 54.2 µM. For the same compound, the TGI in the assay on OVCAR-5 ovarian is above 100 µM; in the assay with MOLT-4 leukemia, above 72.6 µM; in the assay with COLO 205 colon, 52.4 µM; with SF-268 CNS, 45.5 µM; with HCC-2998 colon, 75 µM; with NCI/ADR-RES ovarian, above 58 µM. Moreover, the concentration for total growth inhibition (TGI) is above 94.9 µM in the assay on M14 melanoma, 31.5 µM in the assay with K-562 leukemia and above 62.3 µM with UACC-257 melanoma.
